{"source": "patent US20260263584A1", "about": "“Modulating the Innate Immunity of RNA” (priority 2023, published 2026)", "test_system": "Hela cells", "type": "cell-based, human", "data": [{"smiles": "Cn1c(=O)n(C2CCC(=O)NC2=O)c2cccc(C#CCOC3CCN(C[C@H]4CC[C@H](n5cc(NC(=O)c6cnn7ccc(N8C[C@H]9C[C@@H]8CO9)nc67)c(C(F)F)n5)CC4)CC3)c21", "note": "(stereo partly drawn) [PF-07911620, N-{3-(difluoromethyl)-1-[(1S,4R)-4-({4-[(3-{1-[(3S)-2,6-dioxopiperidin-3-yl]-3-methyl-2-oxo-2,3-dihydro-1H-benzimidazol-4-yl}prop-2-yn-1-yl)oxy]piperidin-1-yl}methyl)cyclohexyl]-1H-pyrazol-4-yl}-5-[(1R,4R)-2-oxa-5-azabicyclo[2,2,1]heptan-5-yl]pyrazolo[1,5-a]pyrimidine-3-carboxamide]", "values": [{"measurement": "frequency of HA-positive cells, higher than vehicle controls", "value": 5.5, "unit": "fold"}]}]}
